The values that follow come from PubChem BioAssay (NCI).

Among the test systems are HCC-2998 colon; SNB-19 CNS; ACHN renal; MALME-3M melanoma; HL-60(TB) leukemia; T-47D breast; RPMI-8226 leukemia; KM12 colon; NCI-H226 lung; SN12C renal.
Common to all, as to assay: NCI tumour cell line growth inhibition, 48 h

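Tested at 5 concentrations; 48 h exposure; 96-well plates; endpoints linearly interpolated, else capped at highest concentration. At the TGI there is no net growth.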

As for `COC(=O)CCc1ccc2c(c1)C(=O)CC2`, the TGI with HCC-2998 colon, in the test with SNB-19 CNS, with ACHN renal, in the test on MALME-3M melanoma, in the test on HL-60(TB) leukemia and in the test on T-47D breast was > 100 µM throughout. For the same compound, the TGI in the test on RPMI-8226 leukemia was > 100 µM.
Turning to `C/C(=C\c1ccccc1)C(=O)NCc1ccc(C(=O)NCCc2ccccc2)cc1`, the TGI in the test with KM12 colon is > 100 µM; with HCC-2998 colon, > 100 µM; in the test with SNB-19 CNS it was > 100 µM; with ACHN renal, > 100 µM; in the test on NCI-H226 lung it was 66.1 µM; in the test on MALME-3M melanoma, > 100 µM. The TGI in the test with T-47D breast, in the test on RPMI-8226 leukemia and in the test with SN12C renal was > 100 µM throughout.
In the case of `O=c1[nH]c(=O)n(C2CC(O)C(CO)O2)cc1NN=NCCCc1ccccc1` (configuration not stated), the TGI with KM12 colon, with HCC-2998 colon, in the test on ACHN renal, in the test on NCI-H226 lung, with MALME-3M melanoma and with HL-60(TB) leukemia was > 100 µM each time. Also, the TGI in the test on T-47D breast and in the test with SN12C renal was > 100 µM throughout.
Regarding `CCCCCc1nnc(NS(=O)(=O)c2ccc(NC(=O)OCC(C)C)cc2)s1`, the TGI in the test with KM12 colon is > 100 µM; with SNB-19 CNS, > 100 µM; in the test on ACHN renal, > 100 µM; in the test on MALME-3M melanoma, 94.6 µM; with HL-60(TB) leukemia it was > 100 µM; in the test on T-47D breast, > 100 µM. Moreover, the TGI is 41.4 µM in the test with RPMI-8226 leukemia and > 100 µM in the test on SN12C renal.
Take `O=C(c1ccccc1)n1cc(-c2ccccc2)c2c(=O)[nH]cnc21`: the TGI with KM12 colon, in the test with HCC-2998 colon, with SNB-19 CNS, with ACHN renal, with NCI-H226 lung and in the test with MALME-3M melanoma was > 100 µM each time. Also, the TGI in the test on T-47D breast, with RPMI-8226 leukemia and in the test on SN12C renal was > 100 µM each time.
Turning to `O=C(CCCCCC(=O)N1CC(CCl)c2ccc([N+](=O)[O-])cc21)N1CC(CCl)c2ccc([N+](=O)[O-])cc21` (configuration not stated), the TGI in the test on KM12 colon, in the test with HCC-2998 colon, in the test with SNB-19 CNS, in the test with ACHN renal, with NCI-H226 lung and in the test on HL-60(TB) leukemia was > 100 µM in each case. Further, the TGI in the test on T-47D breast and in the test on SN12C renal was > 100 µM throughout.
Consider `Cc1ccc(-n2cc(-c3ccc(Cl)cc3)c3c(N/N=C4\SCC(=O)N4C)ncnc32)cc1`, for which the TGI was > 100 µM in the test with KM12 colon; 63.1 µM in the test with SNB-19 CNS; > 100 µM in the test on ACHN renal; > 100 µM in the test on NCI-H226 lung; 9.48 µM in the test with MALME-3M melanoma; > 100 µM in the test with HL-60(TB) leukemia. The TGI with T-47D breast, in the test with RPMI-8226 leukemia and with SN12C renal was > 100 µM in each case.
Regarding `COc1cc(O)c2c(=O)c3c(C)cccc3n(C)c2c1`, the TGI in the test with KM12 colon, in the test with HCC-2998 colon, in the test with SNB-19 CNS, in the test on ACHN renal, in the test on NCI-H226 lung and in the test on MALME-3M melanoma was > 10 µM each time. In addition, the TGI with T-47D breast, with RPMI-8226 leukemia and with SN12C renal was > 10 µM throughout.
Turning to `CCOC(=O)C[n+]1cccc(C2(c3cc4ccccc4[nH]3)OCCO2)c1`, the TGI in the test with KM12 colon, in the test with HCC-2998 colon, in the test on SNB-19 CNS, with ACHN renal, in the test with NCI-H226 lung and in the test with MALME-3M melanoma was > 100 µM in each case. Also, the TGI with HL-60(TB) leukemia, in the test with T-47D breast and in the test on RPMI-8226 leukemia was > 100 µM throughout.
Consider `O=C(CCCCCCCCC(=O)N1C(=O)CC(=O)N(c2ccccc2)C1=S)N1C(=O)CC(=O)N(c2ccccc2)C1=S`, for which the TGI in the test on KM12 colon, with HCC-2998 colon, with SNB-19 CNS, with ACHN renal, in the test on MALME-3M melanoma and in the test with T-47D breast was > 100 µM throughout. Also, the TGI in the test with RPMI-8226 leukemia and with SN12C renal was > 100 µM throughout.
As for `CCOC(=O)c1cc(I)c(-c2cc(C)no2)n1C`, the TGI in the test with KM12 colon was 49.3 µM; in the test on SNB-19 CNS it was > 100 µM; in the test on ACHN renal it was > 100 µM; in the test with NCI-H226 lung, > 100 µM; in the test on MALME-3M melanoma, > 100 µM; with HL-60(TB) leukemia, 74.5 µM. Further, the results for the TGI in the test on T-47D breast, in the test on RPMI-8226 leukemia and in the test with SN12C renal were > 100 µM, > 100 µM and 69.4 µM, respectively.
Consider `COc1ccc(/C=C2\CCS(=O)(=O)c3ccccc3C2=O)cc1OC`, for which the TGI was > 100 µM in the test with KM12 colon; 44.1 µM with HCC-2998 colon; > 100 µM with SNB-19 CNS; > 100 µM in the test on ACHN renal; > 100 µM in the test on NCI-H226 lung; 70 µM in the test with HL-60(TB) leukemia. For the same compound, the TGI in the test with T-47D breast, in the test on RPMI-8226 leukemia and with SN12C renal was > 100 µM throughout.
For the compound `O=C1Nc2ccccc2Cn2c1cc1oc(-c3ccccc3)cc12`, the TGI with KM12 colon is > 100 µM; in the test with HCC-2998 colon, > 100 µM; in the test on SNB-19 CNS it was 66.5 µM; with ACHN renal, > 100 µM; with MALME-3M melanoma, > 100 µM; in the test with HL-60(TB) leukemia, > 100 µM. Besides, the TGI in the test with T-47D breast was 92.6 µM; in the test with SN12C renal, > 100 µM.
For the compound `c1ccc(CN[C@]23C4C5CC6C7C5C2C7[C@@](NCc2ccccc2)(C64)N3Cc2ccccc2)cc1` (some centres not stated), the TGI with KM12 colon, in the test on SNB-19 CNS, with ACHN renal, in the test with NCI-H226 lung, with MALME-3M melanoma and in the test on HL-60(TB) leukemia was > 100 µM throughout. The TGI in the test with T-47D breast, with RPMI-8226 leukemia and in the test on SN12C renal was > 100 µM in each case.
Consider `C(=Nc1ccc(-c2nc3ccccc3[nH]2)cc1)c1ccc[nH]1`, for which the TGI in the test on KM12 colon was > 100 µM; in the test on HCC-2998 colon, > 100 µM; in the test on ACHN renal, > 100 µM; in the test with MALME-3M melanoma it was > 100 µM; in the test with HL-60(TB) leukemia it was 20.1 µM; with T-47D breast it was > 100 µM. The TGI with RPMI-8226 leukemia and in the test with SN12C renal was > 100 µM in each case.
